Data from patent US20120165319A1, “INHIBITORS OF INTERLEUKIN-1 BETA CONVERTING ENZYME” (VERTEX PHARMACEUTICALS INCORPORATED, priority 1995, published 2012).
Read-outs that look alike come from different tables or passages of the source.

Key:
[1] = tested on: IL-1β, human peripheral blood mononuclear cells (PBMC); experiment: PBMC cell assay: IL-1β assay with human PBMC or enriched adherent mononuclear cells, LPS-stimulated; format: cell-based
In short: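 Buffy-coat human PBMC at 6×10^6 cells/ml, or adherent monocytes enriched by 1 h adherence (2.5−3.0×10^5 cells/well), are given 5–6 compound dilutions bracketing the ICE Ki (final DMSO 0.1%) plus LPS at a final 5 ng/ml. They are incubated 16–18 hr at 37 °C, 5% CO2, and supernatant mature IL-1β is measured by ELISA, with duplicate cultures and duplicate ELISAs.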

IL-1β, human whole blood = experiment: Whole blood assay for IL-1β production; format: cell-based
In short: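 Human whole blood collected on Na2EDTA was treated with serially diluted compound in saline and then stimulated with LPS at 5.0 ng/ml final, for 16-18 h at 30 °C, in duplicate or triplicate. Plasma IL-1β was measured by ELISA at 1:200 dilution.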

[2] = Homo sapiens, Table 17, read-out: Whole human blood IC50
[3] = Homo sapiens, PBMC, * = values obtained upon reassay
[4] = Homo sapiens, * = values obtained upon reassay, read-out: Whole human blood IC50

SMILES | IC50 [1, 3] | IC50 (IL-1β, human whole blood; [4]) | also measured
O=C1C[C@H](NC(=O)[C@@H]2CCCN3C(=O)CC[C@H](NC(=O)c4ccccc4)C(=O)N23)C(OCCc2ccccc2)O1 (mixture of isomers) [Compound 2100k, [1S,9S(2RS,3S)]9-Benzoylamino-6,10-dioxo-1,2,3,4,7,8,9,10-octahydro-N-(2-phenethyloxy-5-oxotetrahydrofuran-3-yl)-6H-pyridazino[1,2-a][1,2]diazepine-1-carboxamide] | – | – | IC50 ([1]; Homo sapiens, PBMC, Table 17): 4000 nM; IC50 (IL-1β, human whole blood; [2]): 600 nM
O=C1C[C@H](NC(=O)[C@@H]2CCCN3C(=O)CC[C@H](NC(=O)c4ccccc4)C(=O)N23)C(OCc2ccccc2)O1 (single isomer, unassigned) [Compound 2100n] | – | – | IC50 ([1]; Homo sapiens, PBMC, Table 17): 770 nM; IC50 (IL-1β, human whole blood; [2]): 4000 nM
CS(=O)(=O)N[C@H]1CCC(=O)N2CCC[C@@H](C(=O)N[C@@H](CC(=O)O)C(=O)COC(=O)c3sccc3Cl)N2C1=O [505 e, [3S(1S,9S)]5-(3-Chlorothien-2-oyloxy)-3-(6,10-dioxo-9-methanesulphonylamino-1,2,3,4,7,8,9,10-octahydro-6H-pyridazino[1,2-a][1,2]diazepine-1-carboxamido)-4-oxopentanoic acid] | – | – | IC50 ([1]; Table 18): 9000 nM; IC50 (IL-1β, human whole blood; Table 18, read-out: Whole human blood IC5O): 1000 nM
O=C[C@H](CC(=O)O)NC(=O)[C@@H]1CCCN2C(=O)CC[C@H](NC(=O)CCc3ccccc3)C(=O)N12 [Compound 47a, [3S(1S,9S)]3-(6,10-Dioxo-octahydro-9-(3-phenylpropionylamino)-6H-pyridazino[1,2-a][1,2]diazepine-1-carboxamido)-4-oxobutanoic acid] | 2600 nM | 5100 nM | –
O=C(O)C[C@H](NC(=O)[C@@H]1CCCN2C(=O)CC[C@H](NC(=O)CCc3ccccc3)C(=O)N12)C(=O)CSCc1ccccc1Cl [Compound 125b, [3S(1S,9S)]-3-(6,10-dioxo-1,2,3,4,7,8,9,10-octahydro)-9-(3-phenylpropionyl-amino)-6H-pyridazine[1,2-a][1,2]diazepine-1-carboxamido-5-(2-chlorophenyl-methylthio)-4-oxopentanoic acid] | 800 nM | 4500 nM | –
COc1cccc2nc(C(=O)[C@H](CC(=O)O)NC(=O)[C@@H]3CCCN4C(=O)CC[C@H](NC(=O)CCc5ccccc5)C(=O)N34)oc12 [Compound 135a] | 2800 nM | 5000 nM | –
O=C(O)C[C@H](NC(=O)[C@@H]1CCCN2C(=O)CC[C@H](NC(=O)CCc3ccccc3)C(=O)N12)C(=O)COC(=O)c1c(Cl)cccc1Cl [Compound 136] | 870 nM | 2800 nM | –
O=C(O)C[C@H](NC(=O)[C@@H]1CCCN2C(=O)CC[C@H](NC(=O)CCc3ccccc3)C(=O)N12)C(=O)c1ncc(-c2c(Cl)cccc2Cl)o1 [Compound 137] | 1700 nM | 14000 nM | –
CS(=O)(=O)N[C@H]1CCC(=O)N2CCC[C@@H](C(=O)N[C@@H](CC(=O)O)C(=O)COC(=O)c3c(Cl)cccc3Cl)N2C1=O [Compound 138] | 900 nM | 2900 nM | –
N#C[C@H](CC(=O)O)NC(=O)[C@@H]1CCCN2C(=O)CC[C@H](NC(=O)c3ccccc3)C(=O)N12 [Compound 232e, [3S(1S,9S)]9-(Benzoylamino)-3-[6,10-dioxo-1,2,3,4,7,8,9,10-octahydro-6H-pyridazino-[1,2-a][1,2]diazepine-1-carboxamido]-3-cyanopropanoic acid] | 4500 nM | – | –
O=C[C@H](CC(=O)O)NC(=O)[C@@H]1CCCN2C(=O)CC[C@H](NC(=O)c3ccc4c(c3)OCO4)C(=O)N12 [Compound 415, [3S(1S,9S)]3-[6,10-Dioxo-9-(3,4-methylenedioxybenzoylamino)-1,2,3,4,7,8,9,10-octahydro-6H-pyridazino[1,2-a][1,2]diazepine-1-carboxamido]-4-oxobutanoic acid] | 990 nM | – | IC50 ([1]; * = values obtained upon reassay): 1000 nM
COC(=O)N[C@H]1CCC(=O)N2CCC[C@@H](C(=O)N[C@@H](CC(=O)O)C(=O)CSc3ncccn3)N2C1=O [Compound 511c, [3S(1S,9S)]3-[6,10-Dioxo-9-(methoxycarbonyl)-amino-1,2,3,4,7,8,9,10-octahydro-6H-pyridazino[1,2-a][1,2]diazepine-1-carboxamido]-5-(2-mercaptopyrimidine)-4-oxopentanoic acid] | – | – | IC50 ([1]; Homo sapiens, PBMC, Table 17): > 20000 nM
